## O=C(O)CCCCCCCCCCCC(=O)O
In acetic acid, 288.15 K
  solubility (mole fraction): 0.00231
In acetic acid, 293.15 K
  solubility (mole fraction): 0.00309
In acetic acid, 298.15 K
  solubility (mole fraction): 0.00418
In acetic acid, 303.15 K
  solubility (mole fraction): 0.00656
In acetic acid, 308.15 K
  solubility (mole fraction): 0.00975
In acetic acid, 313.15 K
  solubility (mole fraction): 0.0138
In acetic acid, 318.15 K
  solubility (mole fraction): 0.0201
In acetic acid, 323.15 K
  solubility (mole fraction): 0.0253
In acetone, 283.15 K
  solubility (mole fraction): 0.00192
In acetone, 288.15 K
  solubility (mole fraction): 0.00207
In acetone, 293.15 K
  solubility (mole fraction): 0.00302
In acetone, 298.15 K
  solubility (mole fraction): 0.00409
In acetone, 303.15 K
  solubility (mole fraction): 0.00633
In acetone, 308.15 K
  solubility (mole fraction): 0.00892
In acetone, 313.15 K
  solubility (mole fraction): 0.0128
In acetone, 318.15 K
  solubility (mole fraction): 0.0166
In acetone, 323.15 K
  solubility (mole fraction): 0.0234
In ethanol, 283.15 K
  solubility (mole fraction): 0.00277
In ethanol, 288.15 K
  solubility (mole fraction): 0.00286
In ethanol, 293.15 K
  solubility (mole fraction): 0.00388
In ethanol, 298.15 K
  solubility (mole fraction): 0.00441
In ethanol, 303.15 K
  solubility (mole fraction): 0.00674
In ethanol, 308.15 K
  solubility (mole fraction): 0.0115
In ethanol, 313.15 K
  solubility (mole fraction): 0.0149
In ethanol, 318.15 K
  solubility (mole fraction): 0.0207
In ethanol, 323.15 K
  solubility (mole fraction): 0.0263
In ethyl acetate, 283.15 K
  solubility (mole fraction): 0.00072
In ethyl acetate, 288.15 K
  solubility (mole fraction): 0.00083
In ethyl acetate, 293.15 K
  solubility (mole fraction): 0.00111
In ethyl acetate, 298.15 K
  solubility (mole fraction): 0.00149
In ethyl acetate, 303.15 K
  solubility (mole fraction): 0.00254
In ethyl acetate, 308.15 K
  solubility (mole fraction): 0.00361
In ethyl acetate, 313.15 K
  solubility (mole fraction): 0.00524
In ethyl acetate, 318.15 K
  solubility (mole fraction): 0.00722
In ethyl acetate, 323.15 K
  solubility (mole fraction): 0.011
In methanol, 283.15 K
  solubility (mole fraction): 0.00291
In methanol, 288.15 K
  solubility (mole fraction): 0.00315
In methanol, 293.15 K
  solubility (mole fraction): 0.00388
In methanol, 298.15 K
  solubility (mole fraction): 0.00449
In methanol, 303.15 K
  solubility (mole fraction): 0.00541
In methanol, 308.15 K
  solubility (mole fraction): 0.00845
In methanol, 313.15 K
  solubility (mole fraction): 0.0106
In methanol, 318.15 K
  solubility (mole fraction): 0.0126
In methanol, 323.15 K
  solubility (mole fraction): 0.015

From BigSolDB 2.1
